Earlier results as cited in patent US20090062317A1, “MEDICINAL USE OF RECEPTOR LIGANDS” (7TM PHARMA A/S, priority 2004, published 2009).

System: rats
Conditions: literature reports

Compound | food intake induced by i.c.v.-injected MCH
CN(C)CC1CCc2cc(NC(=O)c3ccc(-c4ccc(F)cc4)cc3)ccc2C1 (centres unmarked) [Example T-226296] | suppress food intake
COCC1=C(C(=O)OC)[C@H](c2ccc(F)c(F)c2)N(C(=O)NCCCN2CCC(c3cccc(NC(C)=O)c3)CC2)C(=O)N1 [SNAP-7941] | suppress food intake
